Results from ChEMBL document CHEMBL3774389, “C-3 benzoic acid derivatives of C-3 deoxybetulinic acid and deoxybetulin as HIV-1 maturation inhibitors” (Bioorg Med Chem, 2016).

Key:
[1] = Cytotoxicity against human MT2 cells assessed as cell viability by redox dye assay; assay type: cell-based
[2] = test system: HEK-293T; experiment: Binding affinity to HIV1 Gag polyprotein assessed as protease-mediated p25-Spacer peptide 1 cleavage in HEK293T cells by measuring […] ratio at 2 uM by Western blot analysis; assay type: cell-based; conditions: Human immunodeficiency virus 1
[3] = Half life in human liver microsomes at 0.5 uM by LC-MS/MS analysis in presence of NADPH; assay type: ADME
[4] = Displacement of [3H]-dihydro-bevirimat from HIV1 Gag polyprotein virus like particles after 3 hrs; parameters: species or system Human immunodeficiency virus 1
[5] = Half life in rat liver microsomes at 0.5 uM by LC-MS/MS analysis in presence of NADPH; assay type: ADME
[6] = Oral bioavailability in rat at 5 mg/kg by LC-MS/MS; assay type: ADME, organism-based; conditions: in vivo
[7] = AUC(0 to 6 hrs) in rat at 5 mg/kg, po by LC-MS/MS; assay type: ADME, organism-based; parameters: time < 6 hr, dose 5 mg/kg, route oral; conditions: in vivo
[8] = Cmax in rat at 5 mg/kg, po by LC-MS/MS; assay type: ADME, organism-based; parameters: dose 5 mg/kg, route oral; conditions: in vivo
[9] = Tmax in rat at 5 mg/kg, po by LC-MS/MS; assay type: ADME, organism-based; conditions: in vivo
[10] = Clearance in cannula implanted rat at 1 mg/kg, iv by LC-MS/MS; assay type: ADME, organism-based; conditions: in vivo
[11] = Volume of distribution in steady state in cannula implanted rat at 1 mg/kg, iv by LC-MS/MS; assay type: ADME, organism-based; conditions: in vivo, read-out: Vdss
[12] = test system: Human immunodeficiency virus 1; experiment: Antiviral activity against wild type HIV1 NLRepRlucP373S infected in human MT2 cells after 4 to 5 days in presence of 27 mg/ml HSA by luciferase report gene based multiple cycle drug susceptibility assay; assay type: functional, organism-based; conditions: Human immunodeficiency virus 1, NLRepRlucP373S
[13] = Solubility of the compound; assay type: physicochemical
[14] = test system: Human immunodeficiency virus 1; experiment: Antiviral activity against wild type HIV1 NLRepRlucP373S infected in human MT2 cells after 4 to 5 days by luciferase report gene based multiple cycle drug susceptibility assay; assay type: functional, organism-based; conditions: Human immunodeficiency virus 1, NLRepRlucP373S
[15] = test system: Human immunodeficiency virus 1; experiment: Antiviral activity against wild type HIV1 NLRepRlucP373S infected in human MT2 cells after 4 to 5 days in presence of 15 mg/ml HSA by luciferase report gene based multiple cycle drug susceptibility assay; assay type: functional, organism-based; conditions: Human immunodeficiency virus 1, NLRepRlucP373S
[16] = test system: Human immunodeficiency virus 1; experiment: Ratio of EC50 for HIV1 NLRepRlucP373S infected in human MT2 cells in presence of HSA to EC50 for HIV1 NLRepRlucP373S infected in human MT2 cells in absence of HSA; assay type: functional
[17] = test system: Human immunodeficiency virus 1; experiment: Antiviral activity against HIV1 containing gag V370A mutant infected in human MT2 cells after 4 to 5 days by luciferase report gene based multiple cycle drug susceptibility assay; assay type: functional, organism-based; conditions: Human immunodeficiency virus 1, MT2
[18] = Protein binding of the compound in plasma (unknown origin); assay type: ADME, cell-free; conditions: read-out: PB

Compound	CC50 [1]	Ratio [2]	half-life at 0.5 µM [3]	IC50 [4]	half-life at 0.5 µM [5]	bioavailability [6]	AUC(0-t) at 6 h [7]	Cmax [8]	Tmax [9]	clearance [10]	Vd [11]	EC50 [12]	solubility [13]	EC50 [14]	EC50 [15]	Ratio EC50 [16]	EC50 [17]	fraction unbound [18]
C=C(C)[C@@H]1CC[C@]2(C(=O)O)CC[C@]3(C)[C@H](CC[C@@H]4[C@@]5(C)CC=C(c6ccc(C(=O)O)cc6)C(C)(C)[C@@H]5CC[C@]43C)[C@@H]12	27200 nM	1.6	2 h	27 nM	2 h	4%	5.72 µM·h	1310 nM	4 h	1 mL/min/kg	0.2 L/kg	310 nM	Insoluble	–	–	–	–	–
C=C(C)[C@@H]1CC[C@]2(CO)CC[C@]3(C)[C@H](CC[C@@H]4[C@@]5(C)CC=C(c6ccc(C(=O)O)cc6)C(C)(C)[C@@H]5CC[C@]43C)[C@@H]12	9650 nM	–	2 h	–	2 h	4%	2.14 µM·h	590 nM	5 h	2.1 mL/min/kg	0.5 L/kg	–	Insoluble	11 nM	27 nM	2.5	212 nM	–
C=C(C)[C@@H]1CC[C@]2(CO)CC[C@]3(C)[C@H](CC[C@@H]4[C@@]5(C)CC=C(c6ccc(C(=O)O)cc6F)C(C)(C)[C@@H]5CC[C@]43C)[C@@H]12	16500 nM	–	–	–	–	–	–	–	–	–	–	–	–	55 nM	50 nM	1	1400 nM	–
C=C(C)[C@@H]1CC[C@]2(CO)CC[C@]3(C)[C@H](CC[C@@H]4[C@@]5(C)CC=C(c6ccc(C(=O)O)cc6C)C(C)(C)[C@@H]5CC[C@]43C)[C@@H]12	7020 nM	–	–	–	–	–	–	–	–	–	–	–	–	613 nM	660 nM	1	3880 nM	–
C=C(C)[C@@H]1CC[C@]2(C(=O)O)CC[C@]3(C)[C@H](CC[C@@H]4[C@@]5(C)CC[C@H](OC(=O)CC(C)(C)C(=O)O)C(C)(C)[C@@H]5CC[C@]43C)[C@@H]12 [BEVIRIMAT]	–	–	–	–	–	18%	–	2590 nM	0.3 h	4 mL/min/kg	–	–	–	–	–	–	–	< 0.001
C=C(C)[C@@H]1CC[C@]2(C(=O)O)CC[C@]3(C)[C@H](CC[C@@H]4[C@@]5(C)CC=C(c6ccc(C(=O)NS(=O)(=O)C(C)C)cc6)C(C)(C)[C@@H]5CC[C@]43C)[C@@H]12	8680 nM	–	–	–	–	–	–	–	–	–	–	–	–	124 nM	275 nM	2.2	937 nM	–
